In assay [1] the target is T1, Transient receptor potential cation channel subfamily M member 8 (Homo sapiens, UniProt Q7Z2W7). Kind of assay: Antagonist activity at human TRPM8 receptor expressed in human T-REx-293 cells assessed as inhibition of icilin-induced 45calcium influx treated 5 mins before icilin challenge measured after 5 mins. It is filed as functional, cell-based, HEK293.
Target sequence in this assay (Q7Z2W7 whole entry): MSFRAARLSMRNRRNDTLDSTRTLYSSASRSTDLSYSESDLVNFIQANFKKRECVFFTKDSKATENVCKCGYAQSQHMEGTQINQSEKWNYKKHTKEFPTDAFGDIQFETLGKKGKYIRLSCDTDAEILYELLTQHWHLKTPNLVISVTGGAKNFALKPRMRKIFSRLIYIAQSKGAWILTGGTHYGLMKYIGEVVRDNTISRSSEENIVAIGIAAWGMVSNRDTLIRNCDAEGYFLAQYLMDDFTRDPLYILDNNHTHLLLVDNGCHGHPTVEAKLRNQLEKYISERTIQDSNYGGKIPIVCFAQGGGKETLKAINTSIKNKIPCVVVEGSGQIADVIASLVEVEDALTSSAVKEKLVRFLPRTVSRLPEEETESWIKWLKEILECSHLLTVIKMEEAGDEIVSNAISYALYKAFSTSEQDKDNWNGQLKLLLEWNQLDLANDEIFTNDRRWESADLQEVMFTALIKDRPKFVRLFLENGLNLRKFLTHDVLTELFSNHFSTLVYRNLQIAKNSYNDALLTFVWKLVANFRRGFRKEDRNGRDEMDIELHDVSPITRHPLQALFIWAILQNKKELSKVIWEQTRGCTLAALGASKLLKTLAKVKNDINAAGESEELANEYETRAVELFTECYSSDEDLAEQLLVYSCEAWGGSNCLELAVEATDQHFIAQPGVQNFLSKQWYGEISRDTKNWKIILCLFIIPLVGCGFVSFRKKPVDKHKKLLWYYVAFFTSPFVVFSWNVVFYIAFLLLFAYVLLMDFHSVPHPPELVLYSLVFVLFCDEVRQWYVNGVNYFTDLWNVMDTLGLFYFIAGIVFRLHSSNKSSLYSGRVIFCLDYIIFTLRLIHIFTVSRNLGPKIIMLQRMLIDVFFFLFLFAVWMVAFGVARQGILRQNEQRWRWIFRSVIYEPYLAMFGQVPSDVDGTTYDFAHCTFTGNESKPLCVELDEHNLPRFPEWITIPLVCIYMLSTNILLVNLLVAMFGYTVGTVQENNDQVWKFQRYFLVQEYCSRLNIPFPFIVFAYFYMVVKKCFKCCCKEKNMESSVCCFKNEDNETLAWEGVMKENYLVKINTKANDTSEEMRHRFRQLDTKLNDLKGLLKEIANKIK
For assay [2], the target named is T1, Transient receptor potential cation channel subfamily M member 8. Kind of assay: Antagonist activity at human TRPM8 receptor expressed in human T-REx-293 cells assessed as inhibition of menthol-induced 45calcium influx treated 5 mins before menthol challenge measured after 5 mins. It is filed as functional, cell-based, HEK293.
Target sequence in this assay (Q7Z2W7 whole entry): as above
Assay [3] shares this target. Kind of assay: Antagonist activity at human TRPM8 receptor expressed in HEK cells assessed as inhibition of WS-12-stimulated current at 100 uM pretreated for 2 mins by patch clamp assay. Format: functional, cell-based. The following applies: HEK293. On the technique in general: Patch clamp records ionic current or voltage across a cell membrane.
Target sequence in this assay (Q7Z2W7 whole entry, looked up): as the sequence (Q7Z2W7 whole entry) above
Assay [4] has as its target Transient receptor potential cation channel subfamily V member 4 (Homo sapiens) (UniProt Q9HBA0). Kind of assay: Inhibition of TRPV4 receptor up to 10 uM.
Assay [5] concerns the target T1, Transient receptor potential cation channel subfamily M member 8. Particulars: HEK293, 1 uM.
Target sequence in this assay (Q7Z2W7 whole entry, looked up): as the sequence (Q7Z2W7 whole entry) above
Description: Antagonist activity at human TRPM8 receptor expressed in HEK cells assessed as inhibition of WS-12-stimulated current at 1 uM pretreated for 2 mins by patch clamp assay
For assay [6], the target named is Transient receptor potential cation channel subfamily V member 1 (Homo sapiens) (UniProt Q8NER1). Kind of assay: Inhibition of TRPV1 receptor up to 10 uM.
The target in assay [7] is Transient receptor potential cation channel subfamily A member 1 (Homo sapiens) (UniProt O75762). Kind of assay: Inhibition of TRPA1 receptor up to 10 uM.

Activity calls are given as the source filed them. No cut-off for these calls is given here.

Sequence of Transient receptor potential cation channel subfamily V member 4 (Homo sapiens) (Q9HBA0 whole entry): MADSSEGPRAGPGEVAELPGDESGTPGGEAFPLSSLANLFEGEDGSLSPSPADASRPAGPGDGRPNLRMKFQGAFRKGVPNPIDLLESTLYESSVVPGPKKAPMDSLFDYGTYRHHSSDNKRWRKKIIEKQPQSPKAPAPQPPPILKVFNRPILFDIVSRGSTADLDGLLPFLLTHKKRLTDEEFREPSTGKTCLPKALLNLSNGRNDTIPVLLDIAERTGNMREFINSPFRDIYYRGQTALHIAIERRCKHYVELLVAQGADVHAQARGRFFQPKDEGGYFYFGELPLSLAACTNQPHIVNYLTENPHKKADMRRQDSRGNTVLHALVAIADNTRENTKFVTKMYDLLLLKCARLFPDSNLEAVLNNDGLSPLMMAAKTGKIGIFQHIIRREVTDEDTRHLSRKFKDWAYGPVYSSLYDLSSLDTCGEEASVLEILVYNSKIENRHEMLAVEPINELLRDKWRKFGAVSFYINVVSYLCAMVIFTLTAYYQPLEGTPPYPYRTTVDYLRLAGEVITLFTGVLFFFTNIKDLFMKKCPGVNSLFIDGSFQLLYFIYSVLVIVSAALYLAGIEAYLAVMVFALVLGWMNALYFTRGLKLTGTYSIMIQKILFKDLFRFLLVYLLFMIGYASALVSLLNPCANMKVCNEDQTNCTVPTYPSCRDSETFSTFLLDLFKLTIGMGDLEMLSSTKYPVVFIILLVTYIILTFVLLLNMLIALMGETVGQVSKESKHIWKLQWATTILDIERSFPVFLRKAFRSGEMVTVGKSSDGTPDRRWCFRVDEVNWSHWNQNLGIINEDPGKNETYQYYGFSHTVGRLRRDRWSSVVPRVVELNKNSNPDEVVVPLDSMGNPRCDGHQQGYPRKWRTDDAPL
Sequence of Transient receptor potential cation channel subfamily A member 1 (Homo sapiens) (O75762 whole entry): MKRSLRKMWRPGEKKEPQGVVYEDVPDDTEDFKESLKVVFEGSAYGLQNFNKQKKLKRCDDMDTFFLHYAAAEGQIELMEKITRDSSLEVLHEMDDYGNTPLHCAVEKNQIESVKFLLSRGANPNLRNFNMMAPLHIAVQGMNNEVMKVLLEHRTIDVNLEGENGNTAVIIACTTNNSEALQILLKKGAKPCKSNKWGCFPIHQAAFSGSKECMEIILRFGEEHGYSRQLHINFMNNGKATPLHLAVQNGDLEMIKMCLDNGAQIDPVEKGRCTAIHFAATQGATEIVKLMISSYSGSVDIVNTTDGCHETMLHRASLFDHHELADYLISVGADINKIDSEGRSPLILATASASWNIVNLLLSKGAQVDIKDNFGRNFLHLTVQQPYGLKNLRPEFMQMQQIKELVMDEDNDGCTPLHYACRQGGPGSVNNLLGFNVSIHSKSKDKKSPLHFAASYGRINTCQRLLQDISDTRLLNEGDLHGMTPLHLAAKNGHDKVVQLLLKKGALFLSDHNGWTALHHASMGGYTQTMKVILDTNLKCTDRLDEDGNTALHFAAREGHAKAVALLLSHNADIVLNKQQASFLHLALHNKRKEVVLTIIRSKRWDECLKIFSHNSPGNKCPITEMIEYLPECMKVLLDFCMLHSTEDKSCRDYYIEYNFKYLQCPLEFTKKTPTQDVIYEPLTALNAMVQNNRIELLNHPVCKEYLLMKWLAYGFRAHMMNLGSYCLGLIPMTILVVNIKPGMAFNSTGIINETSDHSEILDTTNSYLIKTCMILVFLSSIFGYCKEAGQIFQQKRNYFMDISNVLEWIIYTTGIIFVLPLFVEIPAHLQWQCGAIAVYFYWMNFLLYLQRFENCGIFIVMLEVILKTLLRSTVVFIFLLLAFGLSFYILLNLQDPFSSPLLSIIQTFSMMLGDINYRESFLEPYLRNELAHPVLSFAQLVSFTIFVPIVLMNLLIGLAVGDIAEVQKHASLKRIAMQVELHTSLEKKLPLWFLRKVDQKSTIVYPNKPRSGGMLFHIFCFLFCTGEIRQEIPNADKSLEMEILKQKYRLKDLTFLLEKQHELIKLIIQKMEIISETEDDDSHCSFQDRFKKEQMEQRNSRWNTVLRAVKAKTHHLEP
Sequence of Transient receptor potential cation channel subfamily V member 1 (Homo sapiens) (Q8NER1 whole entry): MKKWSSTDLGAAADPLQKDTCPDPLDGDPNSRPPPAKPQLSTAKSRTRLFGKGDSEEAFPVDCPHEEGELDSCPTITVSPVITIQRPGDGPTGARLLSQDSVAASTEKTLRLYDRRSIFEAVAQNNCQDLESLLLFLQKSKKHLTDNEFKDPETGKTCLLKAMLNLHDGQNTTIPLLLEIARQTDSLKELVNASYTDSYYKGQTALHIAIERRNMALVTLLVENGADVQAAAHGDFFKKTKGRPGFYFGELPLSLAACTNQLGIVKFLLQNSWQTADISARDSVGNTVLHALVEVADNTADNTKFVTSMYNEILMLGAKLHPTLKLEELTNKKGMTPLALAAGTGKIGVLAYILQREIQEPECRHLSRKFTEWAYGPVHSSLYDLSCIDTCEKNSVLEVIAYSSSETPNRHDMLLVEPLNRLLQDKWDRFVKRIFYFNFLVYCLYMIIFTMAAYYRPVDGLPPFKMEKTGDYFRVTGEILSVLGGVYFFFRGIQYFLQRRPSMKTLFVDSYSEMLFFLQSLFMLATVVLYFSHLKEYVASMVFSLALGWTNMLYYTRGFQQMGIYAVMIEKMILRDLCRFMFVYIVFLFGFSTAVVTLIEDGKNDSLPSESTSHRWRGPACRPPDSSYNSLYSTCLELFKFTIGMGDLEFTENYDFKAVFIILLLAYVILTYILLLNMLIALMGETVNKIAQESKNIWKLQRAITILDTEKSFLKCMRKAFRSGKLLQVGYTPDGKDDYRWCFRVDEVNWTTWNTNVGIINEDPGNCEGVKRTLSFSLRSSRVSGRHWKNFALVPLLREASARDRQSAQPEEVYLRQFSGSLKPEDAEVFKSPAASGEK

As to `CN(C)CCc1c[nH]c2ccc(OCc3ccccc3)cc12`, the half-inhibitory concentration (IC50) in assay [1] stood at 5.96 µM; in assay [2] (read-out: IC50), 5.63 µM.
On the same counts, the results for `COc1ccc2[nH]cc(CCN)c2c1` [5-METHOXYTRYPTAMINE] are 11.6 µM and 12.4 µM.
For the molecule `NCCc1c[nH]c2ccc(Cl)cc12`, the half-maximal inhibitory concentration (IC50) in assay [1] was 32.2 µM; in assay [2] (read-out: IC50), 21.5 µM.
For `N#CCc1c[nH]c2ccc(OCc3ccccc3)cc12`, the IC50 result in assay [2] (hek293) is reported as “Not Active”.
As to `Cc1[nH]c2ccc(OCc3ccccc3)cc2c1CCN`, the IC50 stood at 2.36 µM in assay [1] and 1.5 µM in assay [2] (read-out: IC50).
As for `NCCc1c[nH]c2ccc(Br)cc12`, the IC50 in assay [1] came to 30.4 µM; in assay [2] (read-out: IC50) it was 22.7 µM.
For the molecule `NCCc1c[nH]c2ccc(O)cc12`, the inhibition entry in assay [3] was “inactive”.
As to `NCCc1c[nH]c2c(OCc3ccccc3)cccc12`, the IC50 was found to be 8.93 µM in assay [1] and 3.34 µM in assay [2] (read-out: IC50).
Take `c1ccc(COc2ccc3[nH]ccc3c2)cc1`: the 50% inhibitory concentration (IC50) result in assay [2] (hek293) is on record as “Not Active”.
As to `CCOC(=O)NCCc1c[nH]c2ccc(OCc3ccccc3)cc12`, the figures for the IC50 in assay [1] and in assay [2] (read-out: IC50) were 28.8 µM and 21.6 µM, respectively.
`NCCc1c[nH]c2ccc(F)cc12`: the IC50 came out at 13.1 µM in assay [1] and 12.3 µM in assay [2] (read-out: IC50).
For `NCCc1c[nH]c2ccc(OCc3ccccc3)cc12` [5-BENZYLOXYTRYPTAMINE], the IC50 was determined as 0.66 µM in assay [1] and 0.34 µM in assay [2] (read-out: IC50). Also, the inhibition entry in assay [4], in assay [6] and in assay [7] was “inactive” each time. For the same molecule, the inhibition entry in assay [5] was “Active”.

The IC50 is the concentration that gives 50% inhibition.

The values are drawn from ChEMBL document CHEMBL1287687, “5-benzyloxytryptamine as an antagonist of TRPM8” (Bioorg Med Chem Lett, 2010).
